In article PMC9182199, “Borylated 2,3,4,5-Tetrachlorophthalimide and Their 2,3,4,5-Tetrachlorobenzamide Analogues: Synthesis, Their Glycosidase Inhibition and Anticancer Properties in View to Boron Neutron Capture Therapy” (Molecules, 2022):

Tests used:
[1] = system: panel of 15 glycosidases; assay: Glycosidase inhibition, laboratory 1: whole panel; assay type: biochemical; conditions: laboratory 1, methanol; range or words over enzymes
Text: The enzymes α-glucosidase (from yeast), β-glucosidases (from almond and bovine liver), α-galactosidase (from coffee beans), β-galactosidase (from bovine liver), α-mannosidase (from Jack bean), β-mannosidase (from snail), α-L-rhamnosidase (from Penicillium decumbens), α-L-fucosidase (from bovine kidney), trehalase (from porcine kidney), β-glucuronidases (from E. coli and bovine liver), amyloglucosidase (from A. niger), para-nitrophenyl glycosides, and various disaccharides were purchased from Sigma-Aldrich Co (St Louis, MO, USA).
Brush border membranes were prepared from the rat small intestine according to the method of Kessler et al. and were assayed at pH 6.8 for rat intestinal maltase using maltose. For rat intestinal maltase, porcine kidney trehalase, and A. niger amyloglucosidase activities, the reaction mixture contained 25 mM maltose and the appropriate amount of enzyme, and the incubations were performed for 10–30 min at 37 °C. The reaction was stopped by heating at 100 °C for 3 min. […] The absorbance at 505 nm was measured to determine the amount of the released D-glucose. Other glycosidase activities were determined using an appropriate para-nitrophenyl glycoside as substrate at the optimum pH of each enzyme. […] The released para-nitrophenol was measured spectrometrically at 400 nm. […]

[2] = system: HT29; assay: MTT cell growth inhibition: HT29; assay type: cell-based; conditions: Homo sapiens, HT-29, read-out: GI50 = Concentration (µM) that inhibits cell growth by 50%; HT29 colon carcinoma; dose response
[3] = system: MIA-Pa-Ca2; assay: MTT cell growth inhibition: MIA-Pa-Ca2; assay type: cell-based; conditions: Homo sapiens, MIA PaCa-2, read-out: GI50 = Concentration (µM) that inhibits cell growth by 50%; MIA-Pa-Ca2 pancreatic carcinoma; dose response

Row | Structure (SMILES) | percent inhibition across the glycosidase panel [1] | GI50 [2] [µM] | GI50 [3] [µM]
1 | CC1(C)OB(c2ccccc2NC(=O)c2cc(Cl)c(Cl)c(Cl)c2Cl)OC1(C)C [ortho 5, 2,3,4,5-Tetrachloro-N-(2-(4,4,5,5-tetramethyl-1,3,2-dioxaborolan-2-yl)phenyl)benzamide] | no significant inhibition | 14 ± 1.7 | 14 ± 0.25
2 | CC1(C)OB(c2ccc(CN3C(=O)c4c(Cl)c(Cl)c(Cl)c(Cl)c4C3=O)cc2)OC1(C)C [para 3, 4,5,6,7-Tetrachloro-2-(4-(4,4,5,5-tetramethyl-1,3,2-dioxaborolan-2-yl)benzyl)isoindoline-1,3-dione] | – | 5.3 ± 1.3 | 9.2 ± 1.9
3 | CC1(C)OB(c2cccc(CN3C(=O)c4c(Cl)c(Cl)c(Cl)c(Cl)c4C3=O)c2)OC1(C)C [meta 3, 4,5,6,7-Tetrachloro-2-(3-(4,4,5,5-tetramethyl-1,3,2-dioxaborolan-2-yl)benzyl)isoindoline-1,3-dione] | – | 26 ± 2.6 | 38 ± 2.9
